This is an account of results in patent US8168232B2, “Formulations and methods of using nitric oxide mimetics in cancer treatment” (priority 2000, dated 2012).

This assay relates to MDA-MB-231 breast cancer cells. Kind of assay: Colony formation assay for doxorubicin resistance, MDA-MB-231 monolayer. The format is cell-based, human. As for the experimental part:
The resistance of MDA-MB-231 breast cancer cells to doxorubicin was determined following culture in 20% or 1% oxygen by counting the number of colonies formed. MDA-MB-231 cells were incubated in 1% O2 or 20% O2 for 24 hours. […] The cells were washed and then plated onto 35 mm plates at different dilutions. The cells were incubated for an additional 1-2 weeks in order to allow cell colonies to grow. At the end of the incubation period, the cells were fixed with Carnoy's fixative, stained with Crystal violet, rinsed and allowed to air dry. Colonies were counted visually. The surviving cells under each condition was determined by counting the number of colonies and was expressed as a fraction of the number of colonies that survived without doxorubicin exposure.
Using human MDA-MB-231 breast carcinoma cells in clonogenic assays, survival was determined following doxorubicin exposure and NO mimetic administration to both monolayer and spheroid cultures. […] However, these NO mimetics effectively attenuated the resistance to 200 μM doxorubicin associated with 3D culture by 90% and 30% respectively.

Regarding `O=[N+]([O-])OCC(CO[N+](=O)[O-])O[N+](=O)[O-]` [GTN, glyceryl trinitrate], the “doxorubicin survival rates vs untreated hypoxic cells” value (hypoxic cells, 10^−6 M and 10^−10 M GTN) is “lower doxorubicin survival rates”. Moreover, the “attenuation of hypoxia-induced resistance to doxorubicin” value (monolayer cells in 1% O2, GTN 1 μM) is 50%.
